Here are results for 10 compounds from ChEMBL document CHEMBL1201862, “PubChem BioAssay data set” (2004).

The term GI50 denotes the concentration at which growth is held to half of that of the control.

Common to all, as to assay: DTP human tumour cell line panel, 48 h
For assay [1], the system named is SN12C.
Assay [2] relates to UACC-62.
In assay [3] the test system is 786-0.
For assay [4], the system named is Malme-3M.
The subject of assay [5] is DU-145.
For assay [6], the system named is OVCAR-4.
Assay [7] concerns HOP-92.
Assay [8] has as its system RPMI-8226.
Assay [9] relates to HL-60.
The subject of assay [10] is NCI/ADR-RES.
Assay [11] concerns SW-620.
Assay [12] deals with EKVX.
Assay [13] deals with Hs-578T.
Assay [14] concerns A549.
The subject of assay [15] is MCF7.
Assay [16] relates to MDA-MB-435.
Assay [17] deals with SK-MEL-2.
Assay [18] has as its system A498.
The subject of assay [19] is OVCAR-5.

Each structure is given as a SMILES string. Several values for one entry are separate records, joined by “and”; a condition that tells them apart may be missing. Equal entries are not always repeated.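 Five compound concentrations were applied to cells in 96-well plates for 48 hours; endpoints were derived by simple linear interpolation of the resulting dose-response curve. GI50 is the concentration that inhibits growth by half.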 Activity calls are given as the source filed them. No stated cut-off is given here; in the data, active = GI50 up to about 1.1 µM and inactive = higher. Residues, ends and D or L forms follow the SMILES beside them. *: point of attachment. Boc = CC(C)(C)OC(=O)*; OBn = c1ccc(CO*)cc1

With `CN(C)c1ccc(C(=NN)c2ccc(N(C)C)cc2)cc1`, the GI50 in [1] was 2.56 µM (inactive); in [2], 0.506 µM (active); in [3] it was 4.8 µM (inactive); in [4], 53.3 µM (inactive); in assay [5], 2.2 µM (inactive); in assay [6], 9.62 µM (inactive). For the same compound, the GI50 in assay [7] is 14.5 µM (inactive); in [8] it was 0.859 µM (active); in assay [9], 0.322 µM (active); in [10], 0.179 µM (active); in [11], 0.462 µM (active); in assay [12] it was 4.74 µM (inactive). The GI50 was 2.33 µM (inactive) in assay [13]; 1.3 µM (inactive) in assay [14]; 0.573 µM (active) in assay [15]; 0.0416 µM (active) in assay [16]; 0.121 µM (active) in [17]; 4.93 µM (inactive) in [18]. Moreover, in assay [19], the GI50 was 4.95 µM (inactive).
As for `CN(C)CCn1c(=O)c2ccc(NCCNCCO)c3c(=O)c4cc(O)ccc4n(c1=O)c23`, the concentration for 50% growth inhibition (GI50) in assay [1] is 0.308 µM (active); in assay [2], 1.47 µM (inactive); in assay [3], 0.617 µM (active); in assay [4], 2.42 µM (inactive); in assay [5], 0.875 µM (active); in assay [6], 0.895 µM (active). In addition, the GI50 in assay [7] was 0.61 µM (active); in assay [8], 1.18 µM (inactive); in assay [9], 1.47 µM (inactive); in assay [10] it was 17.1 µM (inactive); in assay [11] it was 0.532 µM (active); in [12], 2.58 µM (inactive). The GI50 in assay [13] was 0.667 µM (active); in [14], 0.607 µM (active); in assay [15], 0.465 µM (active); in assay [16] it was 2.39 µM (inactive); in assay [17] it was 1.9 µM (inactive); in [18] it was 1.93 µM (inactive). Besides, the GI50 in assay [19] was 1.79 µM (inactive).
For the compound `CCN(CC)C(=S)N/N=C(/C)c1cccc(/C(C)=N\NC(=S)N(CC)CC)n1`, the GI50 in assay [1] was 2.79 µM (inactive); in assay [2] it was 2.62 µM (inactive); in assay [3], 1.45 µM (inactive); in assay [4], 1.45 µM (inactive); in assay [5], 0.414 µM (active); in assay [6], 1.25 µM (inactive). Further, the GI50 in [7] is 1.46 µM (inactive); in assay [8], 2.08 µM (inactive); in [9] it was 0.055 µM (active); in assay [10], 2 µM (inactive); in [11], 0.951 µM (active); in [12], 2.64 µM (inactive). The GI50 in [13] is 5.64 µM (inactive); in assay [14], 2.86 µM (inactive); in assay [15] it was 2.04 µM (inactive); in assay [16] it was 3.35 µM (inactive); in [17], 4.68 µM (inactive); in [18] it was 1.89 µM (inactive). In addition, the GI50 in assay [19] is 3.31 µM (inactive).
In the case of `N#CC(NCCO)=C1C(=O)c2ccccc2C1=O`, the GI50 in [1], in assay [2], in [3], in assay [4], in assay [5] and in assay [6] was > 100 µM (inactive) in each case. In addition, the GI50 in assay [7], in assay [8], in assay [9], in [10], in assay [11] and in assay [12] was > 100 µM (inactive) each time. Moreover, the GI50 in assay [13], in assay [14], in assay [15], in assay [16], in assay [17] and in assay [18] was > 100 µM (inactive) in each case. In addition, the GI50 in assay [19] is > 100 µM (inactive).
Regarding `O=C(O)C1(C(=O)O)CCN(S(=O)(=O)c2ccccc2)CC1`, the GI50 in assay [1], in assay [2], in assay [3], in [4], in [5] and in assay [6] was > 100 µM (inactive) in each case. Besides, the GI50 in assay [7], in [8], in assay [9], in [10], in [11] and in assay [12] was > 100 µM (inactive) throughout. In addition, the GI50 in [13], in assay [14], in assay [15], in [16], in [17] and in assay [18] was > 100 µM (inactive) throughout. Further, in assay [19], the GI50 is > 100 µM (inactive).
As for `CC(C)C(NC(=O)CNC(=O)C1CCCN1C(=O)C(NC(=O)OC(C)(C)C)C(C)C)C(=O)NCC(=O)OCc1ccccc1` (stereo not given) (Boc-VPGVG-OBn; configuration not given here), the GI50 in assay [1], in [2], in assay [3], in [4], in assay [5] and in assay [6] was > 100 µM (inactive) throughout. Moreover, the GI50 in [7] was > 100 µM (inactive); in assay [8] it was > 100 µM (inactive); in [9], > 100 µM (inactive) and 72.8 µM (inactive); in assay [10], > 100 µM (inactive); in assay [11], > 100 µM (inactive); in assay [12], > 100 µM (inactive). For the same compound, the GI50 in assay [13] is 80.7 µM (inactive); in assay [14], > 100 µM (inactive); in [15], > 100 µM (inactive); in [16], > 100 µM (inactive); in assay [17] it was > 100 µM (inactive); in assay [18], > 100 µM (inactive). Further, in assay [19], the GI50 was > 100 µM (inactive).
As to `OC1(c2ccccc2)CCN(Cc2c[nH]c3ccccc23)CC1`, the GI50 in [1] is > 100 µM (inactive); in [2] it was 47.8 µM (inactive); in assay [3], 44 µM (inactive); in assay [4] it was 23.2 µM (inactive); in assay [5] it was > 100 µM (inactive); in assay [6] it was > 100 µM (inactive). Also, the GI50 in assay [7] was > 100 µM (inactive); in assay [8], 39.5 µM (inactive); in [9] it was 48.2 µM (inactive); in assay [10] it was > 100 µM (inactive); in assay [11], > 100 µM (inactive); in [12] it was > 100 µM (inactive). For the same compound, the GI50 in [13] is > 100 µM (inactive); in assay [14], > 100 µM (inactive); in [15], 50.5 µM (inactive); in [16] it was 37.2 µM (inactive); in assay [17], 18 µM (inactive); in assay [18], 92.3 µM (inactive). Further, the GI50 in assay [19] was > 100 µM (inactive).
In the case of `COc1cccc2c1cc([N+](=O)[O-])c1c(C(=O)O)cc3c(c12)OCO3` [ARISTOLOCHIC ACID], the GI50 is > 74.3 µM (inactive) in assay [1]; 31.4 µM (inactive) in assay [2]; 37.2 µM (inactive) in assay [3]; 46.8 µM (inactive) in [4]; 30.1 µM (inactive) in assay [5]; 32 µM (inactive) in assay [6]. For the same compound, the GI50 is > 78 µM (inactive) in [7]; 24.7 µM (inactive) in assay [8]; 23.1 µM (inactive) in [9]; 38.1 µM (inactive) in [10]; 32 µM (inactive) in assay [11]; 43.4 µM (inactive) in assay [12]. Further, the GI50 was 52.8 µM (inactive) in [13]; 45.9 µM (inactive) in assay [14]; 49.4 µM (inactive) in assay [15]; 54.8 µM (inactive) in assay [16]; 57.8 µM (inactive) in [17]; 29.4 µM (inactive) in assay [18]. Moreover, in [19], the GI50 is 25.4 µM (inactive).
As for `CC(=O)C1=C(C)N(c2ccccc2)C2(O)C3=C(C(=O)c4ccccc4C3=O)C(O)=CC12Cl` (stereo not given), the GI50 is 4.46 µM (inactive) in assay [1]; 13 µM (inactive) in assay [2]; 4.63 µM (inactive) in [3]; 1.88 µM (inactive) in [4]; 11.2 µM (inactive) in [5]; 3.08 µM (inactive) in assay [6]. Further, the GI50 in assay [7] was 7.08 µM (inactive); in assay [8], 0.855 µM (active); in [9], 2.9 µM (inactive); in assay [10], 3.73 µM (inactive); in assay [11], 3.89 µM (inactive); in [12], 8.51 µM (inactive). The GI50 in assay [13] was 4.01 µM (inactive); in [14], 7.29 µM (inactive); in assay [15], 3.61 µM (inactive); in assay [16] it was 2.32 µM (inactive); in assay [17] it was 5.07 µM (inactive); in assay [18], 13 µM (inactive). In [19], the GI50 was 20 µM (inactive).
In the case of `COC(=O)C1=C(C)NC(C)=C(C(=O)OCCCN2CCC(c3ccccc3)(c3ccccc3)CC2)[C@H]1c1cccc([N+](=O)[O-])c1` [NIGULDIPINE], the GI50 was 1.58 µM (inactive) in assay [1]; 1.61 µM (inactive) in [2]; 1.61 µM (inactive) in assay [3]; 2.07 µM (inactive) in assay [4]; 1.86 µM (inactive) in assay [5]; 1.55 µM (inactive) in assay [6]. The GI50 in assay [7] was 1.39 µM (inactive); in assay [8], 1.61 µM (inactive); in assay [9] it was 1.16 µM (inactive); in assay [10] it was 1.73 µM (inactive); in assay [11], 1.92 µM (inactive); in assay [12], 2 µM (inactive). Moreover, the GI50 in assay [13] is 1.69 µM (inactive); in [14], 1.79 µM (inactive); in [15] it was 2.07 µM (inactive); in [16], 1.63 µM (inactive); in [17], 2.41 µM (inactive); in [18], 4.53 µM (inactive). Further, the GI50 in [19] is 2.9 µM (inactive).
